“Also recorded” adds a separate entry of the source.
Assays:
[1] = derivable from literature; cited from earlier work
[2] = test system: purified commercially available lipase (lysosomal lipase); assay: 4-MUD assay on a purified commercially available lipase; type: biochemical; details: 10 μM orlistat, 1 mM PMSF, 10 mM EDTA; pH 5.5
Method: The target concentration of OPTS was 25 μM and the target concentration of 4-MUD was 30 μM. For preparing a master mix, 4×AMT buffer was mixed with the appropriate volume of H2O in a Falcon tube. The dialysed antibody (Ab) preparation samples (drug substance) or control solutions (75 μl) were transferred to 96 well plates. Optional inhibitors (10 μM orlistat, 1 mM PMSF and 10 mM EDTA) were added to the master mix comprising 4×AMT buffer and water and substrate (3 μl/sample 3 mM 4-MUD in DMSO or […] 250 μM OPTS in H2O, aliquoted and frozen). The 4-MUD substrate was stored at a concentrated stock solution comprising 3 mM 4-methylumbelliferyl decanoate (4-MUD; FM25973, Carbosynth) in DMSO resulting in a 100× stock solution for use comprising […] in DMSO. The 250 μM OPTS stock solution was prepared in H2O, aliquoted and frozen until use. […] The reaction was then started by adding the master mix (reaction solution) to the protein solution or control solution, respectively. The measurement was started immediately. The measuring time was 30 min and the measuring intervals 15 s. Stock solutions of the inhibitors were used as follows: 300 μM orlistat (Sigma-Aldrich, USA) in DMSO, 100 mM PMSF (Roth, Germany) in isopropanol and 500 mM EDTA (Sigma-Aldrich, USA) in H2O.
(§1) To generate pH profiles of the protein solutions, kinetic measurements were carried out as described above at the indicated pH value. The added AMT buffer was adjusted to the pH indicated in a range of pH 4-8 (0.5 steps) and the kinetics were recorded for each pH value.
Further, a purified commercially available lipase with unknown substrate specificity was analysed using the 4-MUD and OPTS assay. First, hydrolysis of both soluble (OPTS) and hydrophobic (4-MUD) carboxyl esters, as well as the influence of orlistat, PMSF and EDTA on the hydrolytic activity of the lipase were investigated.
Furthermore, the lipase was tested for its pH dependence in the OPTS and 4-MUD substrate assays. For this purpose, the hydrolytic activity was examined at pH=4-8.

[3] = test system: contaminating host cell proteins with hydrolase (carboxylesterase) activity in antibody solutions; assay: OPTS assay on antibody preparations (drug substance samples); type: biochemical, CHO K1 or DG44 cells; details: orlistat 10 μM, PMSF 1 mM, EDTA 10 mM; all 9 antibody samples
Source text: In order to be able to determine the enzymatic activity, a substrate, 1-octanoyloxy-pyrene-3,6,8-trisulfonic acid trisodium salt (OPTS), was chosen. Its hydrolytic product, 1-hydroxypyrene-3,6,8-trisulfonic acid trisodium salt (HPTS), can be detected by fluorescence spectroscopy. The change in the fluorescence signal over time is directly related to the change in the concentration of free fluorophore. The conversion was made possible by setting up a calibration curve with a subsequent linear fit (R^2≥0.99). The experiments of the kinetics measurements with the OPTS/4-MUD substrates assay were performed in duplicates. The reaction mixture without the protein of interest, which served as the respective control, was subtracted from the protein-containing batch. The buffer used for OPTS measurements (hydrophilic substrate) contained 0.3 M HOAc, 0.3 M MES, 0.6 M TRIS and 0.6 M NaCl (4×AMT buffer; acetate, MES, TRIS). For 4-MUD substrate measurements (lipophilic substrate) 0.04 M CHAPS was added in addition. […] All measurements were carried out in multiwell plates with a preparation volume of 300 μL (75 μL 4×AMT buffer, 30 μL substrate, 75 μL enzyme-containing solution, x μL additive, 300 μL ad. H2O) Unless otherwise stated, all fluorescence spectroscopic measurements were performed using 96-well, clear-bottom, non-binding plates (Greiner, Austria) on a SpectraMax M3 PlateReader (Molecular Device, USA) and recorded using SoftMax Pro 7.0.3 software (Molecular Device, USA). […] For evaluation, the detected fluorescence signal for a reaction mix without protein of interest (control) was subtracted from the reaction mix with protein of interest (e.g. DS). Hydrolysis of the substrate has been measured by detecting the fluorescence intensity of the released chromophore (4-MU or HPTS) immediately following mixing in real-time for a few minutes up to 5 hours depending on fluorescence intensity. The changes in the fluorescence signal over time were subsequently converted to hydrolytic activity using previously established calibration curves with a linear fit (R^2≥0.99). […]

[4] = test system: contaminating host cell proteins with hydrolytic (lipase) activity in antibody solutions; assay: 4-MUD assay on antibody preparations (drug substance samples); type: biochemical, CHO K1 or DG44 cells; details: all 9 antibody samples; for effect of inhibitor on hydrolytic activity in the 9 antibody samples, 4-MUD assay: orlistat 10 μM, PMSF 1 mM, EDTA 10 mM
Source text: In order to be able to determine the enzymatic activity, a substrate, 1-octanoyloxy-pyrene-3,6,8-trisulfonic acid trisodium salt (OPTS), was chosen. Its hydrolytic product, 1-hydroxypyrene-3,6,8-trisulfonic acid trisodium salt (HPTS), can be detected by fluorescence spectroscopy. The change in the fluorescence signal over time is directly related to the change in the concentration of free fluorophore. The conversion was made possible by setting up a calibration curve with a subsequent linear fit (R^2≥0.99). The experiments of the kinetics measurements with the OPTS/4-MUD substrates assay were performed in duplicates. The reaction mixture without the protein of interest, which served as the respective control, was subtracted from the protein-containing batch. The buffer used for OPTS measurements (hydrophilic substrate) contained 0.3 M HOAc, 0.3 M MES, 0.6 M TRIS and 0.6 M NaCl (4×AMT buffer; acetate, MES, TRIS). For 4-MUD substrate measurements (lipophilic substrate) 0.04 M CHAPS was added in addition. The buffer (AMT) was prepared in four-fold concentration (4×AMT) and was added at 25% (v/v) to the reaction mix. All measurements were carried out in multiwell plates with a preparation volume of 300 μL (75 μL 4×AMT buffer, 30 μL substrate, 75 μL enzyme-containing solution, x μL additive, 300 μL ad. H2O) Unless otherwise stated, all fluorescence spectroscopic measurements were performed using 96-well, clear-bottom, non-binding plates (Greiner, Austria) on a SpectraMax M3 PlateReader (Molecular Device, USA) and recorded using SoftMax Pro 7.0.3 software (Molecular Device, USA). The OPTS assay measurements were typically taken at 25° C., λex=403 nm and λem=512 nm and the 4-MUD assay measurements were taken at 25° C., λex=330 nm and λem=450 nm. For evaluation, the detected fluorescence signal for a reaction mix without protein of interest (control) was subtracted from the reaction mix with protein of interest (e.g. DS). Hydrolysis of the substrate has been measured by detecting the fluorescence intensity of the released chromophore (4-MU or HPTS) immediately following mixing in real-time for a few minutes up to 5 hours depending on fluorescence intensity. The changes in the fluorescence signal over time were subsequently converted to hydrolytic activity using previously established calibration curves with a linear fit (R^2≥0.99).
The target concentration of OPTS was 25 μM and the target concentration of 4-MUD was 30 μM. […]
as §1

Row | influence of inhibitors on hydrolytic activity of the lipase, 4-MUD substrate [2] | SMILES | CMC [1] | effect of inhibitor on hydrolytic activity in the 9 antibody samples, OPTS assay [3] | effect of inhibitor on hydrolytic activity in the 9 antibody samples, 4-MUD assay [4] | residual activities with orlistat ([4]; 10 μM orlistat, % of hydrolysis activity without inhibitor)
1 | – | CCCCCCCCCCCC[N+](C)(C)CCCS(=O)(=O)[O-] [Zwittergent 3-12, n-Dodecyl-N,N-dimethyl-3-ammonio-1-propanesulfonate] | 2 to 4 mM | – | – | –
2 | only minor effects | O=C(O)CN(CCN(CC(=O)O)CC(=O)O)CC(=O)O [EDTA] | – | Neither orlistat, nor PMSF or EDTA significantly reduced; also recorded: no inhibition | hardly any inhibition; also recorded: no inhibition | –
3 | – | C[C@H](CCC(=O)NCCC[N+](C)(C)CC(O)CS(=O)(=O)[O-])[C@H]1CC[C@H]2[C@@H]3[C@H](O)C[C@@H]4C[C@H](O)CC[C@]4(C)[C@H]3C[C@H](O)[C@]12C (stereo partly drawn) [CHAPSO, 3-([3-Cholamidopropyl)dimethylammonio]-2-hydroxy-1-propanesulfonate] | about 8 mM | – | – | –
4 | almost completely inhibited | CCCCCCCCCCC[C@@H](C[C@@H]1OC(=O)[C@H]1CCCCCC)OC(=O)[C@H](CC(C)C)NC=O [orlistat] | – | Neither orlistat, nor PMSF or EDTA significantly reduced | pronounced inhibition; also recorded: strong inhibition | 18-21%

Row | SMILES | influence of inhibitors on hydrolytic activity of the lipase, 4-MUD substrate [2] | CMC [1] | effect of inhibitor on hydrolytic activity in the 9 antibody samples, OPTS assay [3] | effect of inhibitor on hydrolytic activity in the 9 antibody samples, 4-MUD assay [4] | residual activities with orlistat ([4]; 10 μM orlistat, % of hydrolysis activity without inhibitor)
5 | O=S(=O)(F)Cc1ccccc1 [PMSF] | only minor effects | – | Neither orlistat, nor PMSF or EDTA significantly reduced | sight inhibition | –
